pIC50: −log10 of the molar value. “And” between values parts separate entries of the source, which are not always exact repeats. Equal values may be shown once.
Experiments:
[1] = system: NIH-3T3 CCDC6-RET luciferase cells implanted intracranially; assay: Intracranial efficacy study; assay type: in vivo, nude mice; conditions: 50 mg per kg BID from day 5 after implantation
[2] = system: LUAD-0057AS1 PDX; assay: PDX efficacy study; conditions: for Change in Tumor Volume: end of study, individual tumors
[3] = system: LC-2/ad cells; assay: Growth inhibition (alamarBlue, 96 h); assay type: cell-based, human; conditions: for raw viability signal (Source Data Fig. 3b-c): LC-2/Ad, replicate sets
[4] = system: TT cells; assay: Growth inhibition (alamarBlue, 96 h); assay type: cell-based, human; conditions: for raw viability signal (Source Data Fig. 3b-c): replicate sets
[5] = system: ECLC5 xenografts; assay: Subcutaneous xenograft efficacy study; conditions: for Change in Tumor Volume: end of study, individual tumors
[6] = target: T1, panel of 255 (vepafestinib) or 256 (all other inhibitors) recombinant kinases (Homo sapiens, UniProt Q06418); assay: Kinase selectivity profiling at a single concentration (Carna Biosciences); assay type: biochemical; conditions: 23 nM
T1 construct: purchased Carna Biosciences
T1 sequence (Q06418 41-890): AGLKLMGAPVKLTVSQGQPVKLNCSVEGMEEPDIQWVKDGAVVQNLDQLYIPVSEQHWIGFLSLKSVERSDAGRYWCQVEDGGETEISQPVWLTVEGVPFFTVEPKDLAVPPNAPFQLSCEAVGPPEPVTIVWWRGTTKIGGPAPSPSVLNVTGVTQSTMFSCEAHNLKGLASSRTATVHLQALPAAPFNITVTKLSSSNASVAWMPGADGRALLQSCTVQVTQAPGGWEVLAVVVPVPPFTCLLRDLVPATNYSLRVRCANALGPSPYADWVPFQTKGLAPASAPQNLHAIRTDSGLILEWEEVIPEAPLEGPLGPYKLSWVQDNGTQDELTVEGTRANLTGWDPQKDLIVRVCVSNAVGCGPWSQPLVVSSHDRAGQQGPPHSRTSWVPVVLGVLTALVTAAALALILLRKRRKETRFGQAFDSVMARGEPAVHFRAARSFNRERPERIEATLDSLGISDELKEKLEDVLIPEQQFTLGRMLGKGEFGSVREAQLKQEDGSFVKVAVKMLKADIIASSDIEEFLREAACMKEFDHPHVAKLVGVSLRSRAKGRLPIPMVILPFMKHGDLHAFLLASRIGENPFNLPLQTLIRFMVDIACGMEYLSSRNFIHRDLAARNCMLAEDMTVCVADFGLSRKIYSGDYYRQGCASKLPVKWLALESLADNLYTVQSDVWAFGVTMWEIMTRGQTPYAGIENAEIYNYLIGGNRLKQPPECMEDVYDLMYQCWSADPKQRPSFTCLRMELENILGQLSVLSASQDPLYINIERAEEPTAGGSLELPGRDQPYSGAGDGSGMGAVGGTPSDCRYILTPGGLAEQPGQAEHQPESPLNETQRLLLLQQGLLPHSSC

[7] = target: T2, panel of 255 (vepafestinib) or 256 (all other inhibitors) recombinant kinases (Homo sapiens, UniProt P35968); assay: as above; assay type: biochemical; conditions: 23 nM
T2 construct: purchased Carna Biosciences
T2 sequence (P35968 20-1356): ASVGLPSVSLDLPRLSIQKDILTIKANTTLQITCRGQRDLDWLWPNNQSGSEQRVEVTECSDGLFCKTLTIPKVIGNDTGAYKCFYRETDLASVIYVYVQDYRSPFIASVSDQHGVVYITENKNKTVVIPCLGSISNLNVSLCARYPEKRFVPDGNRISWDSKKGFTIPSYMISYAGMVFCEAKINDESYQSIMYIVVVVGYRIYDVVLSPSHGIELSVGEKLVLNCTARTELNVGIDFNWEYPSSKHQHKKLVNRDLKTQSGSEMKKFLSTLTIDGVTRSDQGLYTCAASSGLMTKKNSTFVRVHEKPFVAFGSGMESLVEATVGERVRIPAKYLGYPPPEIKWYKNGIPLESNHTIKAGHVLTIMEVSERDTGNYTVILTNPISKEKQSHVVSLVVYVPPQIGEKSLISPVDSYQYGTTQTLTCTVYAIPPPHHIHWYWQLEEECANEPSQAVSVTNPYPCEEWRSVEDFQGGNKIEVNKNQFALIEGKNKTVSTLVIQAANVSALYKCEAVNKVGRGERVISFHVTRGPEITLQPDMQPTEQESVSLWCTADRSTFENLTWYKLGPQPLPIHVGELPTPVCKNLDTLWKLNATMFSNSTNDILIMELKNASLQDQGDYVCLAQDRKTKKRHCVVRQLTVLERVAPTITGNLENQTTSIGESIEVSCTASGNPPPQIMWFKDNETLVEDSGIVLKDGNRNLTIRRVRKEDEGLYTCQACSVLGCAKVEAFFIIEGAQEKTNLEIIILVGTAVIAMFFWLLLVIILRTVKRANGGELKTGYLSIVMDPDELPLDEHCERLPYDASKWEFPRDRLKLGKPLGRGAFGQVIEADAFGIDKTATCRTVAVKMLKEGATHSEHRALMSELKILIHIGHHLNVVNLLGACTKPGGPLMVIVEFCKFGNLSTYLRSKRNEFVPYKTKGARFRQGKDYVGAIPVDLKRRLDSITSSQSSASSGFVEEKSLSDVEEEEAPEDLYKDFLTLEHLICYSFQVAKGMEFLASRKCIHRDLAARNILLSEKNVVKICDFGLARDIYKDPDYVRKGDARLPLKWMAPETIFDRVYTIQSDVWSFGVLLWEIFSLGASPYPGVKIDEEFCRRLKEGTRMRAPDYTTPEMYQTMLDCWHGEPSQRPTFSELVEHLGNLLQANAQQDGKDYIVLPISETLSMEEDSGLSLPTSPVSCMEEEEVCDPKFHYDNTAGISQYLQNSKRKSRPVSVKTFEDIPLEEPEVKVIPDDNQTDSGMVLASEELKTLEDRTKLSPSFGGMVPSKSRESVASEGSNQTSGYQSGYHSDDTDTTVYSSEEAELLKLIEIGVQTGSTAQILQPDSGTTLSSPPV

[8] = target: T3, panel of 255 (vepafestinib) or 256 (all other inhibitors) recombinant kinases (Homo sapiens, UniProt O14757); assay: as above; assay type: biochemical; conditions: 23 nM
T3 construct: purchased Carna Biosciences
T3 sequence (O14757 whole entry): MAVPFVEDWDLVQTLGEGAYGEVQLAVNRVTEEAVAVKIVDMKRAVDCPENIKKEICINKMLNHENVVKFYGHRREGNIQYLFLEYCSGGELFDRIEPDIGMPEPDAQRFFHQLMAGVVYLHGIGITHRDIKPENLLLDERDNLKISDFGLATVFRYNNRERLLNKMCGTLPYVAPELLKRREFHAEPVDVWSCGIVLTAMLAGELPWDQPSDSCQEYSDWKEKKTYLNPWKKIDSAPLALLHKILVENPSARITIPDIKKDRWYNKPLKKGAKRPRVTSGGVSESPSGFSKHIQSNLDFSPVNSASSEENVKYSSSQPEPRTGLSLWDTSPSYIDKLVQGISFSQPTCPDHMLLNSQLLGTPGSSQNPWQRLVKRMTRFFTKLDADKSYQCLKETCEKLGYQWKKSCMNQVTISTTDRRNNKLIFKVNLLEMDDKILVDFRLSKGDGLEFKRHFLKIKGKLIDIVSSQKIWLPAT

[9] = target: T4, panel of 255 (vepafestinib) or 256 (all other inhibitors) recombinant kinases (Homo sapiens, UniProt Q15375); assay: as above; assay type: biochemical; conditions: 23 nM
T4 construct: purchased Carna Biosciences
T4 sequence (Q15375 28-998): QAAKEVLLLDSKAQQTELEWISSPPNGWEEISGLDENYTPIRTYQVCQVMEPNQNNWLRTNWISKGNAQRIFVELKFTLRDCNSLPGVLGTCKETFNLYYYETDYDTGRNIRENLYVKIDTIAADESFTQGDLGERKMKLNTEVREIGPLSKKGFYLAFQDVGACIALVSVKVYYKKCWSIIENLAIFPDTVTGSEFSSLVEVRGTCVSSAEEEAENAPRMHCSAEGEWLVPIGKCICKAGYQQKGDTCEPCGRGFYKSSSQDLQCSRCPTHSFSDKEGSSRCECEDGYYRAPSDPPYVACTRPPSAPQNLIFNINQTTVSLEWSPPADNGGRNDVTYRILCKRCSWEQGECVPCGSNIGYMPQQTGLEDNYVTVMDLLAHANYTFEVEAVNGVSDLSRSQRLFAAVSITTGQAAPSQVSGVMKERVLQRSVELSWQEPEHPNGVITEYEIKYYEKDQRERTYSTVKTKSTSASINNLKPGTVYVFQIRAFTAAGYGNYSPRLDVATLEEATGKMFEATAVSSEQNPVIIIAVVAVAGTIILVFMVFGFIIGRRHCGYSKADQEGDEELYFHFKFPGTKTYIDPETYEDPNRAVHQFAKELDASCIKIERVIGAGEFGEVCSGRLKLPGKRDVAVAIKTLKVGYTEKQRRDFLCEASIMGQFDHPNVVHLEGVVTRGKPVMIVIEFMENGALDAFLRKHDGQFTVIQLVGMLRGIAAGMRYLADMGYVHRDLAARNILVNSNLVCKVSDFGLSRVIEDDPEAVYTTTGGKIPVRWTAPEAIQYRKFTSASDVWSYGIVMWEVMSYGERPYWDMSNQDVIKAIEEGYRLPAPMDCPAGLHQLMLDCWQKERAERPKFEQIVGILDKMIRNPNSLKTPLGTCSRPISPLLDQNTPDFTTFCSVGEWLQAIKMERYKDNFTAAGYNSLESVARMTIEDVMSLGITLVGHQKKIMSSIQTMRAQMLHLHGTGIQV

[10] = 50 mg/kg BID, day 0, individual animals
[11] = 50 mg/kg BID, day 7, individual animals
[12] = 50 mg/kg BID, day 14, individual animals
[13] = 100 mg/kg QD, day 0, individual animals
[14] = 100 mg/kg QD, day 7, individual animals
[15] = 100 mg/kg QD, day 14, individual animals

With `COCc1ccc(NC(=O)c2c(C#CCN3CCOCC3)n(C3(C)CC3)c3ncnc(N)c23)cc1` [Vepafestinib, 4-amino-N-[4-(methoxymethyl)phenyl]-7-(1-methylcyclopropyl)-6-[3-(morpholin-4-yl)prop-1-yn-1-yl]-7H-pyrrolo[2,3-d]pyrimidine-5-carboxamide] the median survival [1] was 52 days, the tumor shrinkage ([2]; 50 mg per kg BID) was 44% ± 3% and the “Area Under Curve of tumor growth, Mean” value ([2]; 50 mg/kg BID) was -1274. The Tumor volume [2, 10] was 141.55 mm3 and 150.43 mm3 (2×) and 137.16 mm3 and 152.81 mm3 and 132.84 mm3 and 139.24 mm3 and 143.69 mm3, the Tumor volume ([2]; 50 mg/kg BID, day 3, individual animals) was 107.44 mm3 and 102.07 mm3 (2×) and 103.92 mm3 and 105.68 mm3 (2×) and 109.36 mm3 and 109.21 mm3 and the Tumor volume [2, 11] was 86.78 mm3 and 84.95 mm3 (2×) and 83.53 mm3 and 93.45 mm3 and 76.27 mm3 and 91.61 mm3 and 79.29 mm3. For the same compound, the Tumor volume ([2]; 50 mg/kg BID, day 10, individual animals) was 71.99 mm3 and 84.95 mm3 and 77.63 mm3 and 80.7 mm3 (2×) and 69.38 mm3 and 74.9 mm3 and 72.18 mm3, the Tumor volume [2, 12] was 89.72 mm3 and 88.25 mm3 (2×) and 78.99 mm3 and 76.27 mm3 and 80.7 mm3 and 72.18 mm3 and the Tumor volume ([2]; 50 mg/kg BID, day 19, individual animals) was 80.35 mm3 and 77.63 mm3 and 73.3 mm3 (2×) and 71.99 mm3 and 88.25 mm3 and 72.18 mm3. The Tumor volume ([2]; 50 mg/kg BID, day 23, individual animals) was 80.35 mm3 and 82.12 mm3 and 74.61 mm3 and 73.3 mm3 and 71.99 mm3 and 109.29 mm3, the “Change in Tumor Volume” value ([2]; 50 mg/kg BID) was -49.1416% and -46.5865% and -45.4098% and -45.6037% and -52.0319% and -45.807% and -21.5096% and -48.8204% and the tumor shrinkage ([2]; 100 mg per kg QD) was 48% ± 1%. For the same compound, the “Area Under Curve of tumor growth, Mean” value ([2]; 100 mg/kg QD) was -1469, the Tumor volume [2, 13] was 145.84 mm3 (3×) and 143.69 mm3 and 141.32 mm3 and 152.81 mm3 and 139.24 mm3 and 148.22 mm3 and the Tumor volume ([2]; 100 mg/kg QD, day 3, individual animals) was 79.29 mm3 and 83.83 mm3 and 80.7 mm3 (2×) and 91.87 mm3 (3×) and 95.24 mm3. The Tumor volume [2, 14] was 71.99 mm3 and 77.87 mm3 and 69.14 mm3 and 72.18 mm3 and 69.38 mm3 and 74.61 mm3 and 80.7 mm3 and 70.69 mm3, the Tumor volume ([2]; 100 mg/kg QD, day 10, individual animals) was 71.99 mm3 and 80.89 mm3 and 66.35 mm3 and 72.18 mm3 and 69.38 mm3 and 74.61 mm3 and 77.87 mm3 and 70.69 mm3 and the Tumor volume [2, 15] was 77.63 mm3 (2×) and 83.83 mm3 and 74.61 mm3 (2×) and 69.38 mm3 and 87.03 mm3 and 75.92 mm3. The Tumor volume ([2]; 100 mg/kg QD, day 19, individual animals) was 68.09 mm3 and 80.7 mm3 and 73.3 mm3 (2×) and 77.63 mm3 and 74.61 mm3 (2×) and 78.99 mm3, the “Change in Tumor Volume” value ([2]; 100 mg/kg QD) was -49.7394% and -48.9874% and -48.1319% and -52.0319% and -45.2241% and -47.703% and -43.6917% and -45.79% and the pIC50 ([3]; Homo sapiens, LC-2-ad, 96 h, read-out: IC50 for Inhibition of Growth (95% CI)) was 7.82. The “raw viability signal (Source Data Fig. 3b-c)” value (from here on “raw viability signal”) ([3]; 0.01 nM) was 13380.1 and 23532.8, the “raw viability signal” value ([3]; 0.1 nM) was 13890.3 and 20497.1 and the “raw viability signal” value ([3]; 1 nM) was 12571.5 and 21458.9. The “raw viability signal” value ([3]; 10 nM) was 6299.39 and 16710, the “raw viability signal” value ([3]; 100 nM) was 4794.24 and 3373.89 and the “raw viability signal” value ([3]; 1000 nM) was 5340.72 and 2243.82. For the same compound, the “raw viability signal” value ([3]; 10000 nM) was 3810.66 and 1837.55, the “raw viability signal” value ([4]; 0.01 nM) was 22992.9 and 26706 and 26833.9 and 13728.7 and 29403.6 and the “raw viability signal” value ([4]; 0.1 nM) was 22728 and 26400.4 and 33154.7 and 10987.6 and 26655.8. For the same compound, the “raw viability signal” value ([4]; 1 nM) was 22046.8 and 26424.3 and 31146.9 and 10280.3 and 23063, the “raw viability signal” value ([4]; 10 nM) was 18366.2 and 23539.3 and 23168.9 and 8667.42 and 19947.5 and the “raw viability signal” value ([4]; 100 nM) was 10434.7 and 14002.8 and 12336.3 and 4688.9 and 15375.8. The “raw viability signal” value ([4]; 1000 nM) was 10759 and 11509.2 and 9437.03 and 4745.5 and 14900.8, the “raw viability signal” value ([4]; 10000 nM) was 11538.8 and 12388.7 and 14343.9 and 2691.86 and 17063 and the pIC50 ([4]; Homo sapiens, 96 h, read-out: IC50 for Inhibition of Growth (95% CI)) was 7.62. The “Area Under Curve of tumor growth, Mean” value ([5]; 25 mg/kg BID) was -1045, the Tumor volume ([5]; 25 mg/kg BID, day 0, individual animals) was 91.87 mm3 (2×) and 88.56 mm3 (2×) and 85.31 mm3 and the Tumor volume ([5]; 25 mg/kg BID, day 4, individual animals) was 74.9 mm3 (2×) and 77.87 mm3 and 71.99 mm3 and 69.38 mm3. The Tumor volume ([5]; 25 mg/kg BID, day 7, individual animals) was 60.32 mm3 (2×) and 59.11 mm3 and 58.99 mm3 (2×), the Tumor volume ([5]; 25 mg/kg BID, day 11, individual animals) was 60.32 mm3 and 48.77 mm3 and 55.52 mm3 and 54.07 mm3 (2×) and the Tumor volume ([5]; 25 mg/kg BID, day 14, individual animals) was 60.32 mm3 and 48.77 mm3 and 55.52 mm3 and 54.07 mm3 (2×). For the same compound, the “Change in Tumor Volume” value ([5]; 25 mg/kg BID) was -43.3221% and -50.8017% and -52.5743% and -65.5492% and -27.8004%, the tumor regression ([5]; 50 mg per kg BID) was 100% ± 0% and the “Area Under Curve of tumor growth, Mean” value ([5]; 50 mg/kg BID) was -1486. The Tumor volume [5, 10] was 83.83 mm3 and 88.56 mm3 (2×) and 87.03 mm3 and 85.31 mm3, the Tumor volume ([5]; 50 mg/kg BID, day 4, individual animals) was 68.07 mm3 and 72.18 mm3 (2×) and 66.63 mm3 (2×) and the Tumor volume [5, 11] was 39.61 mm3 and 59.11 mm3 and 58.99 mm3 and 61.52 mm3 and 53.18 mm3. The Tumor volume ([5]; 50 mg/kg BID, day 11, individual animals) was 36.97 mm3 and 42.6 mm3 and 49.37 mm3 and 48.41 mm3 and 48.77 mm3, the Tumor volume [5, 12] was 36.97 mm3 and 42.6 mm3 and 41.37 mm3 and 45.5 mm3 and 44.53 mm3 and the “Change in Tumor Volume” value ([5]; 50 mg/kg BID) was -100%. For the same compound, the “Area Under Curve of tumor growth, Mean” value ([5]; 50 mg/kg QD) was -1322, the Tumor volume ([5]; 50 mg/kg QD, day 0, individual animals) was 85.31 mm3 and 83.83 mm3 and 88.56 mm3 and 91.87 mm3 and 90.28 mm3 and the Tumor volume ([5]; 50 mg/kg QD, day 4, individual animals) was 72.18 mm3 (2×) and 75.04 mm3 and 68.07 mm3 and 69.38 mm3. The Tumor volume ([5]; 50 mg/kg QD, day 7, individual animals) was 50.89 mm3 and 53.18 mm3 and 49.83 mm3 (2×) and 48.77 mm3, the Tumor volume ([5]; 50 mg/kg QD, day 11, individual animals) was 52.07 mm3 (2×) and 57.91 mm3 and 49.83 mm3 and 48.77 mm3 and the Tumor volume ([5]; 50 mg/kg QD, day 14, individual animals) was 52.07 mm3 (2×) and 57.91 mm3 and 48.77 mm3 and 62.73 mm3. For the same compound, the “Change in Tumor Volume” value ([5]; 50 mg/kg QD) was -57.7775% and -61.9945% and -68.4282% and -71.9277% and -43.6309%, the tumor regression ([5]; 100 mg per kg QD) was 90.3% ± 4% and the “Area Under Curve of tumor growth, Mean” value ([5]; 100 mg/kg QD) was -1970. For the same compound, the Tumor volume [5, 13] was 91.87 mm3 (2×) and 88.56 mm3 and 85.31 mm3 (2×), the Tumor volume ([5]; 100 mg/kg QD, day 4, individual animals) was 47.71 mm3 and 52.07 mm3 (2×) and 49.83 mm3 and 50.97 mm3 and the Tumor volume [5, 14] was 38.79 mm3 and 35.19 mm3 and 30.11 mm3 (2×) and 25.42 mm3. For the same compound, the Tumor volume ([5]; 100 mg/kg QD, day 11, individual animals) was 38.79 mm3 and 35.19 mm3 and 26.94 mm3 (2×) and 30.11 mm3, the Tumor volume [5, 15] was 34.35 mm3 and 35.19 mm3 and 26.94 mm3 and 28.5 mm3 and 30.11 mm3 and the “Change in Tumor Volume” value ([5]; 100 mg/kg QD) was -85.621% and -100% and -81.7724% and -84.0971%. The “% Inhibiton TYRO3” value [6] was 8.6%, the “% Inhibiton KDR” value [7] was 36% and the “% Inhibiton CHK1” value [8] was 11.9%. For the same compound, the “% Inhibiton EPHA7” value [9] was 10.4%.

Source: PMC10518257 (Nature Cancer, 2023)
